Results: ChEMBL document CHEMBL4145553, “Design, synthesis, and biological evaluation of novel amide and hydrazide based thioether analogs targeting Histone deacteylase (HDAC) enzymes” (Eur J Med Chem, 2018)

Columns and labels:
Assay type in all cases: functional
MDA-MB-435 = experiment: Growth inhibition of human MDA-MB-435 cells assessed as cell growth at 10^-7 M incubated for 48 hrs by sulforhodamine B assay relative to control; details: MDA-MB-435, 48 h, read-out: Activity
SK-MEL-5 [1] = experiment: Growth inhibition of human SK-MEL-5 cells assessed as cell growth at 10^-8 M incubated for 48 hrs by sulforhodamine B assay relative to control; details: SK-MEL-5, 48 h, read-out: Activity
IGROV-1 [2] = experiment: Growth inhibition of human IGROV1 cells assessed as cell growth at 10^-4 M incubated for 48 hrs by sulforhodamine B assay relative to control; details: IGROV-1, 48 h, read-out: Activity
BT-549 = experiment: Growth inhibition of human BT549 cells assessed as cell growth at 10^-4 M incubated for 48 hrs by sulforhodamine B assay relative to control; details: BT-549, 48 h, read-out: Activity
A498 [3] = experiment: Growth inhibition of human A498 cells incubated for 48 hrs by sulforhodamine B assay; details: A498, 48 h
IGROV-1 [4] = experiment: Growth inhibition of human IGROV1 cells incubated for 48 hrs by sulforhodamine B assay; details: IGROV-1, 48 h
UO-31 = experiment: Growth inhibition of human UO31 cells assessed as cell growth at 10^-8 M incubated for 48 hrs by sulforhodamine B assay relative to control; details: UO-31, 48 h, read-out: Activity
OVCAR-5 [5] = experiment: Growth inhibition of human OVCAR5 cells assessed as cell growth at 10^-7 M incubated for 48 hrs by sulforhodamine B assay relative to control; details: OVCAR-5, 48 h, read-out: Activity
CCRF-CEM = experiment: Growth inhibition of human CCRF-CEM cells assessed as cell growth at 10^-4 M incubated for 48 hrs by sulforhodamine B assay relative to control; details: read-out: Activity
MDA-MB-231 = experiment: Growth inhibition of human MDA-MB-231 cells assessed as cell growth at 10^-5 M incubated for 48 hrs by sulforhodamine B assay relative to control; details: MDA-MB-231, 48 h, read-out: Activity
HL-60(TB) = experiment: Growth inhibition of human HL-60(TB) cells assessed as cell growth at 10^-8 M incubated for 48 hrs by sulforhodamine B assay relative to control; details: HL-60, 48 h, read-out: Activity
HOP-62 = experiment: Growth inhibition of human HOP62 cells incubated for 48 hrs by sulforhodamine B assay; details: HOP-62, 48 h
SK-MEL-5 [6] = experiment: Growth inhibition of human SK-MEL-5 cells assessed as cell growth at 10^-5 M incubated for 48 hrs by sulforhodamine B assay relative to control; details: SK-MEL-5, 48 h, read-out: Activity
OVCAR-5 [7] = experiment: Growth inhibition of human OVCAR5 cells assessed as cell growth at 10^-4 M incubated for 48 hrs by sulforhodamine B assay relative to control; details: OVCAR-5, 48 h, read-out: Activity
OVCAR-4 = experiment: Growth inhibition of human OVCAR4 cells assessed as cell growth at 10^-6 M incubated for 48 hrs by sulforhodamine B assay relative to control; details: OVCAR-4, 48 h, read-out: Activity
Malme-3M = experiment: Growth inhibition of human MALME-3M cells assessed as cell growth at 10^-4 M incubated for 48 hrs by sulforhodamine B assay relative to control; details: read-out: Activity
SK-MEL-2 = experiment: Growth inhibition of human SK-MEL-2 cells assessed as cell growth at 10^-4 M incubated for 48 hrs by sulforhodamine B assay relative to control; details: SK-MEL-2, 48 h, read-out: Activity
LOX IMVI = experiment: Growth inhibition of human LOXIMVI cells assessed as cell growth at 10^-7 M incubated for 48 hrs by sulforhodamine B assay relative to control; details: read-out: Activity
RXF 393 = experiment: Growth inhibition of human RXF393 cells assessed as cell growth at 10^-7 M incubated for 48 hrs by sulforhodamine B assay relative to control; details: RXF 393, 48 h, read-out: Activity
MOLT-4 = experiment: Growth inhibition of human MOLT4 cells assessed as cell growth at 10^-8 M incubated for 48 hrs by sulforhodamine B assay relative to control; details: MOLT-4, 48 h, read-out: Activity
IGROV-1 [8] = experiment: Growth inhibition of human IGROV1 cells assessed as cell growth at 10^-8 M incubated for 48 hrs by sulforhodamine B assay relative to control; details: IGROV-1, 48 h, read-out: Activity
HL-60 = experiment: Induction of apoptosis in human HL60 cells assessed as live cells by propidium iodide/Annexin V staining based flow cytometry (reference value: 96.94%)
CAKI-1 = experiment: Growth inhibition of human Caki1 cells assessed as cell growth at 10^-8 M incubated for 48 hrs by sulforhodamine B assay relative to control; details: CAKI-1, 48 h, read-out: Activity
COLO 205 = experiment: Growth inhibition of human COLO205 cells incubated for 48 hrs by sulforhodamine B assay; details: COLO 205, 48 h
T47D = experiment: Growth inhibition of human T47D cells assessed as cell growth at 10^-7 M incubated for 48 hrs by sulforhodamine B assay relative to control; details: read-out: Activity
U-251 = experiment: Growth inhibition of human U251 cells assessed as cell growth at 10^-7 M incubated for 48 hrs by sulforhodamine B assay relative to control; details: U-251, 48 h, read-out: Activity
UACC-257 = experiment: Growth inhibition of human UACC257 cells incubated for 48 hrs by sulforhodamine B assay; details: UACC-257, 48 h
A498 [9] = experiment: Growth inhibition of human A498 cells assessed as cell growth at 10^-6 M incubated for 48 hrs by sulforhodamine B assay relative to control; details: A498, 48 h, read-out: Activity
ACHN = experiment: Growth inhibition of human ACHN cells assessed as cell growth at 10^-8 M incubated for 48 hrs by sulforhodamine B assay relative to control; details: read-out: Activity
SN12C = experiment: Growth inhibition of human SN12C cells incubated for 48 hrs by sulforhodamine B assay
[10] = read-out: LC50 (the source's name)
[11] = read-out: pLC50 (the source's name) (converted)

Structure (SMILES): CCS/C(Nc1ccccc1)=C(\C#N)C(=O)Nc1ccc(OC)cc1
- growth at 0.1 µM (MDA-MB-435): 91%
- growth at 0.01 µM (SK-MEL-5 [1]): 98%
- growth at 100 µM (IGROV-1 [2]): 28%
- growth at 100 µM (BT-549): 12%
- GI50 (A498 [3]; read-out: GI50): 2.54 µM
- CC50 (A498 [3]; [10]): > 100 µM
- TGI (A498 [3]; read-out: TGI): 26.6 µM
- GI50 (A498 [3]; read-out: pGI50 (converted)): 2.57 µM
- CC50 (A498 [3]; [11]): > 100 µM
- TGI (A498 [3]; read-out: pTGI (converted)): 26.9 µM
- GI50 (IGROV-1 [4]; read-out: GI50): 5.3 µM
- CC50 (IGROV-1 [4]; [10]): > 100 µM
- TGI (IGROV-1 [4]; read-out: TGI): > 100 µM
- GI50 (IGROV-1 [4]; read-out: pGI50 (converted)): 5.25 µM
- CC50 (IGROV-1 [4]; [11]): > 100 µM
- TGI (IGROV-1 [4]; read-out: pTGI): > 100 µM
- growth at 0.01 µM (UO-31): 93%
- growth at 0.1 µM (OVCAR-5 [5]): 95%
- growth at 100 µM (CCRF-CEM): 7%
- growth at 10 µM (MDA-MB-231): 23%
- growth at 0.01 µM (HL-60(TB)): 96%
- GI50 (HOP-62; read-out: GI50): 5.62 µM
- CC50 (HOP-62; [10]): > 100 µM
- TGI (HOP-62; read-out: TGI): > 100 µM
- GI50 (HOP-62; read-out: pGI50 (converted)): 5.62 µM
- CC50 (HOP-62; [11]): > 100 µM
- TGI (HOP-62; read-out: pTGI): > 100 µM
- growth at 10 µM (SK-MEL-5 [6]): -8%
- growth at 100 µM (OVCAR-5 [7]): 23%
- growth at 1 µM (OVCAR-4): 88%
- growth at 100 µM (Malme-3M): 45%
- growth at 100 µM (SK-MEL-2): 14%
- growth at 0.1 µM (LOX IMVI): 96%
- growth at 0.1 µM (RXF 393): 100%
- growth at 0.01 µM (MOLT-4): 97%
- growth at 0.01 µM (IGROV-1 [8]): 103%
- Activity (HL-60): 84%
- growth at 0.01 µM (CAKI-1): 90%
- GI50 (COLO 205; read-out: GI50): 3.06 µM
- CC50 (COLO 205; [10]): > 100 µM
- TGI (COLO 205; read-out: TGI): 11.2 µM
- GI50 (COLO 205; read-out: pGI50 (converted)): 3.09 µM
- CC50 (COLO 205; [11]): > 100 µM
- TGI (COLO 205; read-out: pTGI (converted)): 11.2 µM
- growth at 0.1 µM (T47D): 89%
- growth at 0.1 µM (U-251): 98%
- GI50 (UACC-257; read-out: GI50): 21.2 µM
- CC50 (UACC-257; [10]): > 100 µM
- TGI (UACC-257; read-out: TGI): > 100 µM
- GI50 (UACC-257; read-out: pGI50 (converted)): 21.4 µM
- CC50 (UACC-257; [11]): > 100 µM
- TGI (UACC-257; read-out: pTGI): > 100 µM
- growth at 1 µM (A498 [9]): 78%
- growth at 0.01 µM (ACHN): 101%
- GI50 (SN12C; read-out: GI50): 5.91 µM
- CC50 (SN12C; [10]): > 100 µM
- TGI (SN12C; read-out: TGI): > 100 µM
- GI50 (SN12C; read-out: pGI50 (converted)): 5.89 µM
- CC50 (SN12C; [11]): > 100 µM
- TGI (SN12C; read-out: pTGI): > 100 µM
